Results taken from patent US20230085307A1, “PYRIDAZINONE COMPOUND AND HERBICIDE” (NISSAN CHEMICAL CORPORATION, priority 2019, published 2023).

Assays:
persian speedwell = test: Test Example 5: herbicidal effect by foliage application, plastic box (Table 20, symbol R); format: in vivo, Persian speedwell (Veronica persica); conditions: foliage application, 320 g/ha, 3 weeks after application
Procedure, shortened: (§1)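 Foliar spray test: emulsion formulation diluted in water to a set application rate, sprayed onto 14-day-old plants raised in diluvial soil at 25° C to 30° C under glass. Both herbicidal effect and crop effect rated visually three weeks later.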

late watergrass = test: Test Example 2: herbicidal activity, application during weed generation under submerged conditions (Table 17, symbol A); format: in vivo, late watergrass (Echinochloa oryzicola); conditions: AAH 320 g/ha; application during weed generation, submerged conditions
Procedure, shortened: (§2)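 Alluvial soil in Wagner pots was flooded to 4 cm depth and sown with the three weeds together; pots were kept in a greenhouse at 25° C. to 30° C. At the one to two leaf stage, an emulsion formulation diluted in water to a set rate went onto the water surface; scored three weeks later.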

wild oat [1] = test: Test Example 4: herbicidal effect by soil treatment (Table 19, symbol I); format: in vivo, wild oat (Avena fatua); conditions: AAH 320 g/ha
Procedure, shortened: (§3)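 Step 1: sow seeds in sterilized diluvial soil, cover ~1.5 cm. Step 2: spray diluted emulsion onto soil surface at predetermined rate. Step 3: greenhouse, 25–30° C, three weeks. Step 4: grade effect on each plant by earlier criteria.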

southern crabgrass = test: Test Example 5: herbicidal effect by foliage application, plastic box (Table 20, symbol F); format: in vivo, southern crabgrass (Digitaria ciliaris); conditions: foliage application, 320 g/ha, 3 weeks after application
Procedure, shortened: as §1

wild oat [2] = test: Test Example 5: herbicidal effect by foliage application, plastic box (Table 20, symbol I); format: in vivo, wild oat (Avena fatua); conditions: foliage application, 320 g/ha, 3 weeks after application
Procedure, shortened: as §1

Italian ryegrass [3] = test: Test Example 5: herbicidal effect by foliage application, plastic box (Table 20, symbol K); format: in vivo, Italian ryegrass (Lolium multiflorum); conditions: foliage application, 320 g/ha, 3 weeks after application
Procedure, shortened: as §1

redroot pigweed = test: Test Example 4: herbicidal effect by soil treatment (Table 19, symbol N); format: in vivo, redroot pigweed (Amaranthus retroflexus); conditions: AAH 320 g/ha
Procedure, shortened: as §3

chickweed = test: Test Example 4: herbicidal effect by soil treatment (Table 19, symbol P); format: in vivo, common chickweed (Stellaria media); conditions: AAH 320 g/ha
Procedure, shortened: as §3

blackgrass = test: Test Example 4: herbicidal effect by soil treatment (Table 19, symbol J); format: in vivo, blackgrass (Alopecurus myosuroides); conditions: AAH 320 g/ha
Procedure, shortened: as §3

oval-leafed pondweed [4] = test: Test Example 2: herbicidal activity, application during weed generation under submerged conditions (Table 17, symbol C); format: in vivo, oval-leafed pondweed (Monochoria vaginalis); conditions: AAH 320 g/ha; application during weed generation, submerged conditions
Procedure, shortened: as §2

green foxtail [5] = test: Test Example 5: herbicidal effect by foliage application, plastic box (Table 20, symbol G); format: in vivo, green foxtail (Setaria viridis); conditions: foliage application, 320 g/ha, 3 weeks after application
Procedure, shortened: as §1

velvetleaf [6] = test: Test Example 4: herbicidal effect by soil treatment (Table 19, symbol M); format: in vivo, velvetleaf (Abutilon theophrasti); conditions: AAH 320 g/ha
Procedure, shortened: as §3

velvetleaf [7] = test: Test Example 5: herbicidal effect by foliage application, plastic box (Table 20, symbol M); format: in vivo, velvetleaf (Abutilon theophrasti); conditions: foliage application, 320 g/ha, 3 weeks after application
Procedure, shortened: as §1

rice flat sedge = test: Test Example 3: herbicidal effect by foliage application, Wagner pot (Table 18, symbol E); format: in vivo, rice flat sedge (Cyperus iria); conditions: 320 g/ha
Procedure, shortened: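 Plants were sown in alluvial soil held under 0.1–0.5 cm standing water and grown 14 days in a greenhouse at 25–30 °C. An emulsifiable formulation, water-diluted to the set dose, was then sprayed onto the foliage, and effects were scored three weeks later using previously defined criteria.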

oval-leafed pondweed [8] = test: Test Example 1: herbicidal activity, application before weed generation under submerged conditions (Table 16, symbol C); format: in vivo, oval-leafed pondweed (Monochoria vaginalis); conditions: 320 g/ha applied herbicide
Procedure, shortened: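 Emulsion formulation, water-diluted to set dose, was put onto the flooded surface (4 cm depth, alluvial soil) the same day weeds were sown and 2.5-leaf rice transplanted. After 3 weeks at 25-30 °C under glass, each species was rated 0 (≤5% kill) to 5 (≥90% kill).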

green foxtail [9] = test: Test Example 4: herbicidal effect by soil treatment (Table 19, symbol G); format: in vivo, green foxtail (Setaria viridis); conditions: AAH 320 g/ha
Procedure, shortened: as §3

Italian ryegrass [10] = test: Test Example 4: herbicidal effect by soil treatment (Table 19, symbol K); format: in vivo, Italian ryegrass (Lolium multiflorum); conditions: AAH 320 g/ha
Procedure, shortened: as §3

Row | Structure (SMILES) | effect on persian speedwell (R) (persian speedwell) | herbicidal effect rating, A: late watergrass (late watergrass) | I: wild oat, herbicidal effect rating (wild oat [1]) | effect on southern crabgrass (F) (southern crabgrass) | effect on wild oat (I) (wild oat [2]) | effect on Italian ryegrass (K) (Italian ryegrass [3]) | N: redroot pigweed, herbicidal effect rating (redroot pigweed) | P: chickweed, herbicidal effect rating (chickweed) | J: blackgrass, herbicidal effect rating (blackgrass) | herbicidal effect rating, C: oval-leafed pondweed (oval-leafed pondweed [4]) | effect on green foxtail (G) (green foxtail [5]) | M: velvetleaf, herbicidal effect rating (velvetleaf [6]) | effect on velvetleaf (M) (velvetleaf [7]) | herbicidal effect on E (rice flat sedge), rating 0-5 (rice flat sedge) | Herbicidal effect on C: oval-leafed pondweed (grade 0-5) (oval-leafed pondweed [8]) | G: green foxtail, herbicidal effect rating (green foxtail [9]) | K: Italian ryegrass, herbicidal effect rating (Italian ryegrass [10])
1 | Cc1nn(C)c(=O)c(-c2c(-c3ccc(OCCBr)cc3)sc3ccccc23)c1O [1-204] | 5 (Herbicidal rate of 90% or more (almost completely withered)) | 0 (Herbicidal rate of 5% or less (almost no effect)) | 0 (Herbicidal rate of 5% or less (almost no effect)) | 4 (Herbicidal rate of 70% or more and less than 90%) | 0 (Herbicidal rate of 5% or less (almost no effect)) | 3 (Herbicidal rate of 40% or more and less than 70%) | 3 (Herbicidal rate of 40% or more and less than 70%) | 0 (Herbicidal rate of 5% or less (almost no effect)) | 0 (Herbicidal rate of 5% or less (almost no effect)) | 2 (Herbicidal rate of 20% or more and less than 40%) | 4 (Herbicidal rate of 70% or more and less than 90%) | 0 (Herbicidal rate of 5% or less (almost no effect)) | 5 (Herbicidal rate of 90% or more (almost completely withered)) | 5 (Herbicidal rate of 90% or more (almost completely withered)) | 3 (Herbicidal rate of 40% or more and less than 70%) | 0 (Herbicidal rate of 5% or less (almost no effect)) | 0 (Herbicidal rate of 5% or less (almost no effect))
2 | Cc1nn(C)c(=O)c(-c2c(-c3ccc(OCCC(F)(F)F)cc3)sc3ccccc23)c1O [1-206] | 5 (Herbicidal rate of 90% or more (almost completely withered)) | 5 (Herbicidal rate of 90% or more (almost completely withered)) | 0 (Herbicidal rate of 5% or less (almost no effect)) | 5 (Herbicidal rate of 90% or more (almost completely withered)) | 2 (Herbicidal rate of 20% or more and less than 40%) | 5 (Herbicidal rate of 90% or more (almost completely withered)) | 5 (Herbicidal rate of 90% or more (almost completely withered)) | 3 (Herbicidal rate of 40% or more and less than 70%) | 4 (Herbicidal rate of 70% or more and less than 90%) | 5 (Herbicidal rate of 90% or more (almost completely withered)) | 5 (Herbicidal rate of 90% or more (almost completely withered)) | 3 (Herbicidal rate of 40% or more and less than 70%) | 5 (Herbicidal rate of 90% or more (almost completely withered)) | 5 (Herbicidal rate of 90% or more (almost completely withered)) | 5 (Herbicidal rate of 90% or more (almost completely withered)) | 5 (Herbicidal rate of 90% or more (almost completely withered)) | 5 (Herbicidal rate of 90% or more (almost completely withered))
3 | C=C(C)COc1ccc(-c2sc3ccccc3c2-c2c(O)c(C)nn(C)c2=O)cc1 [1-208] | 5 (Herbicidal rate of 90% or more (almost completely withered)) | 5 (Herbicidal rate of 90% or more (almost completely withered)) | 0 (Herbicidal rate of 5% or less (almost no effect)) | 5 (Herbicidal rate of 90% or more (almost completely withered)) | 4 (Herbicidal rate of 70% or more and less than 90%) | 5 (Herbicidal rate of 90% or more (almost completely withered)) | 0 (Herbicidal rate of 5% or less (almost no effect)) | 3 (Herbicidal rate of 40% or more and less than 70%) | 0 (Herbicidal rate of 5% or less (almost no effect)) | 3 (Herbicidal rate of 40% or more and less than 70%) | 5 (Herbicidal rate of 90% or more (almost completely withered)) | 0 (Herbicidal rate of 5% or less (almost no effect)) | 5 (Herbicidal rate of 90% or more (almost completely withered)) | 4 (Herbicidal rate of 70% or more and less than 90%) | 5 (Herbicidal rate of 90% or more (almost completely withered)) | 0 (Herbicidal rate of 5% or less (almost no effect)) | 4 (Herbicidal rate of 70% or more and less than 90%)
4 | C=C(Br)COc1ccc(-c2sc3ccccc3c2-c2c(O)c(C)nn(C)c2=O)cc1 [1-215] | 5 (Herbicidal rate of 90% or more (almost completely withered)) | 3 (Herbicidal rate of 40% or more and less than 70%) | 0 (Herbicidal rate of 5% or less (almost no effect)) | 2 (Herbicidal rate of 20% or more and less than 40%) | 3 (Herbicidal rate of 40% or more and less than 70%) | 4 (Herbicidal rate of 70% or more and less than 90%) | 5 (Herbicidal rate of 90% or more (almost completely withered)) | 1 (Herbicidal rate of 5% or more and less than 20%) | 0 (Herbicidal rate of 5% or less (almost no effect)) | 3 (Herbicidal rate of 40% or more and less than 70%) | 5 (Herbicidal rate of 90% or more (almost completely withered)) | 0 (Herbicidal rate of 5% or less (almost no effect)) | 5 (Herbicidal rate of 90% or more (almost completely withered)) | 5 (Herbicidal rate of 90% or more (almost completely withered)) | 4 (Herbicidal rate of 70% or more and less than 90%) | 0 (Herbicidal rate of 5% or less (almost no effect)) | 0 (Herbicidal rate of 5% or less (almost no effect))
